In paper PMC11154727, “Systematic Studies on the Anti-SARS-CoV-2 Mechanisms of Tea Polyphenol-Related Natural Products” (ACS Omega, 2024) one finds IC50 and EC50 data, which are given here for three compounds.

Test [1] concerns the target T1, RBD/ACE2 interaction (UniProt P0DTC2+Q9BYF1, L452R/T478K). Particulars: read-out: IC50 RBD/ACE2.
Test [2] relates to UK B.1.1.7 N501Y Alpha SARS-CoV-2. It counts as cell-based. Particulars: read-out: EC50 α strain.
The test system of test [3] is Brazil P.1 Gamma mutant SARS-CoV-2. It counts as cell-based. Particulars: read-out: EC50 γ strain.
The target of test [4] is T1, RBD/ACE2 interaction. Briefly: cell-based.

Read-outs that look alike come from different tables or passages of the source.

Take proanthocyanidin: the IC50 on RBD/ACE2 interaction [1] was found to be 12.4 ± 1.1 µM.
On to `O=C(O[C@@H]1Cc2c(O)cc(O)cc2O[C@@H]1c1cc(O)c(=O)c2c(O)c(O)cc([C@H]3Oc4cc(O)cc(O)c4C[C@H]3OC(=O)c3cc(O)c(O)c(O)c3)c2c1)c1cc(O)c(O)c(O)c1` [TF3, theaflavin-3,3′-digallate], for which the EC50 in test [2] stood at 0.5 µM; in test [3] it was 0.4 ± 0.2 µM.
In turn, `O=c1c(O)cc([C@H]2Oc3cc(O)cc(O)c3C[C@H]2O)cc2c([C@H]3Oc4cc(O)cc(O)c4C[C@H]3O)cc(O)c(O)c12` [theaflavin] had an IC50 on RBD/ACE2 interaction [4] of 12.3 ± 1.1 µM.

Broadly, the EC50 is the concentration that produces a half-maximal response.
